{
  "source": "paper PMC9150124",
  "about": "“Design of a Potent, Selective, and Brain-Penetrant Inhibitor of Wnt-Deactivating Enzyme Notum by Optimization of a Crystallographic Fragment Hit” (Journal of Medicinal Chemistry, 2022)",
  "assay_in_all_cases": "SelectScreen kinase profiling, SSBK LanthaScreen Binding SP Technology",
  "key": {"[1]": {"target": "kinase named in conditions (Homo sapiens, UniProt Q92630)", "conditions": "DYRK2, 10 μM"}, "[2]": {"target": "kinase named in conditions (Homo sapiens, UniProt P22607, K650M)", "conditions": "FGFR3 K650M, 10 μM"}, "[3]": {"target": "kinase named in conditions (Homo sapiens, UniProt Q13163)", "conditions": "MAP2K5 (MEK5), 10 μM"}, "[4]": {"target": "kinase named in conditions (Homo sapiens, UniProt Q00526)", "conditions": "CDK3/cyclin E1, 10 μM"}, "[5]": {"target": "kinase named in conditions (Homo sapiens, UniProt P11362, V561M)", "sequence (P11362 22-822 V561M)": "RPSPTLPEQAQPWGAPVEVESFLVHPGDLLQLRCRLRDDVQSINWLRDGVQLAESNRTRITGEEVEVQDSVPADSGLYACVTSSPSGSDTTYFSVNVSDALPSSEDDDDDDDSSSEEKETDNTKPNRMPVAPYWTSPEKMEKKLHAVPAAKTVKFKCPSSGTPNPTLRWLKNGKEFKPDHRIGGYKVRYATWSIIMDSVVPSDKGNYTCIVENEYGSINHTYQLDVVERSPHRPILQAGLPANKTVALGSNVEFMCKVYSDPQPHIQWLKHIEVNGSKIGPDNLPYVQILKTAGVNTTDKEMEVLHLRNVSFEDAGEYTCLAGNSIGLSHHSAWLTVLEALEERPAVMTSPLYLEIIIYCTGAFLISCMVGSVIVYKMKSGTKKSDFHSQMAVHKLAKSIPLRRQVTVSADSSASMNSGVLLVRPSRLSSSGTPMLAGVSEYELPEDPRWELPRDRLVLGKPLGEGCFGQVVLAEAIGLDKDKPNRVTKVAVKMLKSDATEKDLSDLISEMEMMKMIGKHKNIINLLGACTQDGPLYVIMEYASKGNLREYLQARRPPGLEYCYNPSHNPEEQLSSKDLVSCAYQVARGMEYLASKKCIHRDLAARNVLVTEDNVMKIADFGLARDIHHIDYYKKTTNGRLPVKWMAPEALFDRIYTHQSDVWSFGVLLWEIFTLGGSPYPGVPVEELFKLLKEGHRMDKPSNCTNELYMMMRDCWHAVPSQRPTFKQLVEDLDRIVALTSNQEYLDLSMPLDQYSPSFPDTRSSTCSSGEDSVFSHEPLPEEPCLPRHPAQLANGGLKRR", "conditions": "FGFR1 V561M, 10 μM"}, "[6]": {"target": "kinase named in conditions (Homo sapiens, UniProt P36894)", "conditions": "BMPR1A (ALK3), 10 μM"}, "[7]": {"target": "kinase named in conditions (Homo sapiens, UniProt Q99640)", "conditions": "PKMYT1, 10 μM"}, "[8]": {"target": "kinase named in conditions (Homo sapiens, UniProt P36507)", "conditions": "MAP2K2 (MEK2), 10 μM"}, "[9]": {"target": "kinase named in conditions (Homo sapiens, UniProt P08581, D1228H)", "conditions": "MET D1228H, 10 μM"}, "[10]": {"system": "kinase named in conditions"}, "[11]": {"target": "kinase named in conditions (Homo sapiens, UniProt Q13131)", "sequence (Q13131 whole entry)": "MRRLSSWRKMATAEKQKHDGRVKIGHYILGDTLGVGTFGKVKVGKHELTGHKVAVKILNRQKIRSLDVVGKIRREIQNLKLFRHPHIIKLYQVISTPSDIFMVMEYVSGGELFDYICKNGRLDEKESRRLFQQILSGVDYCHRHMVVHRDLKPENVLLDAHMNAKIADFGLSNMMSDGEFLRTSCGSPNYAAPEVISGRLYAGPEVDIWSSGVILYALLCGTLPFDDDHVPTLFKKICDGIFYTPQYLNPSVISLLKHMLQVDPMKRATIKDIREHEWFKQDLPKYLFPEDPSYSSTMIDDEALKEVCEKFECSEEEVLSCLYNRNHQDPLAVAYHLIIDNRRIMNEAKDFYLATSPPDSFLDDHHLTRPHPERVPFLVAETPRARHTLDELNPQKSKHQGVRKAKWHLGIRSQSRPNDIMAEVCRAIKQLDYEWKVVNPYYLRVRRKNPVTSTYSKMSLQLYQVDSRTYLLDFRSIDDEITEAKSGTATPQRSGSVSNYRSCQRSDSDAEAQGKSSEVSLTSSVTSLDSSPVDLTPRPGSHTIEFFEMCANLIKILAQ", "conditions": "10 μM"}, "[12]": {"target": "kinase named in conditions (Homo sapiens, UniProt O14936)", "conditions": "CASK, 10 μM"}, "[13]": {"target": "kinase named in conditions (Homo sapiens, UniProt Q86UX6)", "conditions": "STK32C (YANK3), 10 μM"}, "[14]": {"target": "kinase named in conditions (Homo sapiens, UniProt P53667)", "sequence (P53667 whole entry)": "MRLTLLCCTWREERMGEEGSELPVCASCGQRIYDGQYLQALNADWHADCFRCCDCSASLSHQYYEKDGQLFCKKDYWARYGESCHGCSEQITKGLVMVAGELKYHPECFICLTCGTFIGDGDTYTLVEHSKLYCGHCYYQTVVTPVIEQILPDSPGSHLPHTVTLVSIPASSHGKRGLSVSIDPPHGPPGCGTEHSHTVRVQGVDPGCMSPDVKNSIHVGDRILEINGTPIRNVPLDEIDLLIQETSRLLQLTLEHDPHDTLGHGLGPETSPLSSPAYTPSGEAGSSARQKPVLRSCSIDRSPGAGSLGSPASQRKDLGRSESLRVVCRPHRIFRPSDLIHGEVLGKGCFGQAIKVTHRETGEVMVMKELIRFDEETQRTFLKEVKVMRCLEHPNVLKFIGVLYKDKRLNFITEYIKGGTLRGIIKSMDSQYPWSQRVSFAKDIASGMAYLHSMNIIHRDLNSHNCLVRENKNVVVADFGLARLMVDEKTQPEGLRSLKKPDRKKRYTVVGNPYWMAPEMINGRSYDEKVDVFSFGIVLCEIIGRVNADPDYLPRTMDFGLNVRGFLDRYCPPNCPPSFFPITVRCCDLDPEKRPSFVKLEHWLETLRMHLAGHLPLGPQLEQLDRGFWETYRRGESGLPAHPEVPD", "conditions": "LIMK1, 10 μM"}, "[15]": {"target": "kinase named in conditions (Homo sapiens, UniProt Q8NEV4)", "sequence (Q8NEV4 whole entry)": "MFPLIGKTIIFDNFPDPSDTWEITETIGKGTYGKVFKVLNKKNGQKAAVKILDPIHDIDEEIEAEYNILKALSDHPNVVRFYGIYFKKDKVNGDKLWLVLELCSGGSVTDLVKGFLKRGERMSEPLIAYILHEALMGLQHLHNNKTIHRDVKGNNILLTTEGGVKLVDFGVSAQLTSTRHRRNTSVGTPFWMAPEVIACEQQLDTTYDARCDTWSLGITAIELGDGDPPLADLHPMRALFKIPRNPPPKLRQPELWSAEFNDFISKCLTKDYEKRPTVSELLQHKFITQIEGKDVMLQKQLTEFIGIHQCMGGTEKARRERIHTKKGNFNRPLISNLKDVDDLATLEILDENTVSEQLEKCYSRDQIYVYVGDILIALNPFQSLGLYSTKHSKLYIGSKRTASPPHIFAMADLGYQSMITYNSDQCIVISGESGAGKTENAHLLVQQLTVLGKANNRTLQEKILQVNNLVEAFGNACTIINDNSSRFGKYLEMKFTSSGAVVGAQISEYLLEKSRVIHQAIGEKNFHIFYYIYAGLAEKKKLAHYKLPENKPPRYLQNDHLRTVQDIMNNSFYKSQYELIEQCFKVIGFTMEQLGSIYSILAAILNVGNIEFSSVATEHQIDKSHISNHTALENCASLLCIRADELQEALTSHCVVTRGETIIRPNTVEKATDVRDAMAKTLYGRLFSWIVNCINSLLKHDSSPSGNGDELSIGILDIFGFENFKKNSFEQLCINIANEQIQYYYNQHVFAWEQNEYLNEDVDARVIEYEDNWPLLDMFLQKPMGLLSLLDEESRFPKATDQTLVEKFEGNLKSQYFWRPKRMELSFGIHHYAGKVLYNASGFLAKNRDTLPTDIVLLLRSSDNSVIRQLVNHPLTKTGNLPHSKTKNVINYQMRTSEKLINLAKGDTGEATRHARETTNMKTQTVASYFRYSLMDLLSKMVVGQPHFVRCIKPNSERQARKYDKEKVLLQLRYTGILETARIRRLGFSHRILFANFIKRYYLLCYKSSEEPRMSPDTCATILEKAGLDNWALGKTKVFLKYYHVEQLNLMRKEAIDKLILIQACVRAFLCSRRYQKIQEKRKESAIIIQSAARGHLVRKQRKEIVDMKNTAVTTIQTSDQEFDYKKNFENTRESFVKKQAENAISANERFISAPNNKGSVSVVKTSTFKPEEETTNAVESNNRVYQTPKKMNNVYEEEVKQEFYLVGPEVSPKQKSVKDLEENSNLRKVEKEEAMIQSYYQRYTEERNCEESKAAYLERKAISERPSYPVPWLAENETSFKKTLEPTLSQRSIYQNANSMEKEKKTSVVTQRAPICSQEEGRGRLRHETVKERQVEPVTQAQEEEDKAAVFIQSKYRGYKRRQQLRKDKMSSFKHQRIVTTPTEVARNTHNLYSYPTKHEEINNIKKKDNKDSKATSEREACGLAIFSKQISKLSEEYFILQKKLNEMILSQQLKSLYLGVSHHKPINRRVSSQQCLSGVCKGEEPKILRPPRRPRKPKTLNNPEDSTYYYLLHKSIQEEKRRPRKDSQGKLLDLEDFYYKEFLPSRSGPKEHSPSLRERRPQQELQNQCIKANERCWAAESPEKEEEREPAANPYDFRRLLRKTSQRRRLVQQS", "conditions": "MYO3A (MYO3 alpha), 10 μM"}, "[16]": {"target": "kinase named in conditions (Homo sapiens, UniProt Q9HBH9)", "conditions": "MKNK2 (MNK2), 10 μM"}, "[17]": {"target": "kinase named in conditions (Homo sapiens, UniProt Q16832, T654M)", "conditions": "DDR2 T654M, 10 μM"}, "[18]": {"target": "kinase named in conditions (Homo sapiens, UniProt Q16832)", "conditions": "DDR2, 10 μM"}, "[19]": {"target": "kinase named in conditions (Homo sapiens, UniProt Q04771)", "conditions": "ACVR1 (ALK2), 10 μM"}, "[20]": {"target": "kinase named in conditions (Homo sapiens, UniProt Q9NY57)", "conditions": "STK32B (YANK2), 10 μM"}, "[21]": {"target": "kinase named in conditions (Homo sapiens, UniProt Q99683)", "conditions": "MAP3K5 (ASK1), 10 μM"}, "[22]": {"target": "kinase named in conditions (Homo sapiens, UniProt P10721, V654A)", "conditions": "KIT V654A, 10 μM"}, "[23]": {"target": "kinase named in conditions (Homo sapiens, UniProt Q02750, S218D/S222D)", "sequence (Q02750 whole entry S218D/S222D)": "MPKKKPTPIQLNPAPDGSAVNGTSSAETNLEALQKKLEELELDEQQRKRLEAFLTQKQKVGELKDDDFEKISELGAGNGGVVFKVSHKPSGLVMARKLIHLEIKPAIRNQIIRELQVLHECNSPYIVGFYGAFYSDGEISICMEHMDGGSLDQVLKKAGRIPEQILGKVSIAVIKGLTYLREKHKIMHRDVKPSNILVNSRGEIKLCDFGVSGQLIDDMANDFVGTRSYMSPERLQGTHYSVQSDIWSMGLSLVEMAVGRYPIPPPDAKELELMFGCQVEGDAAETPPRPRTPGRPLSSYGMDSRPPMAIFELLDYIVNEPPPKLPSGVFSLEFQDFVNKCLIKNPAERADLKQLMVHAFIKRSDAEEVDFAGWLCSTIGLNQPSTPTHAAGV", "conditions": "MAP2K1 (MEK1) S218D S222D, 10 μM"}, "[24]": {"target": "kinase named in conditions (Homo sapiens, UniProt P04049, Y340D/Y341D)", "conditions": "RAF1 (cRAF) Y340D Y341D, 10 μM"}, "[25]": {"target": "kinase named in conditions (Homo sapiens, UniProt Q9UEW8)", "conditions": "STK39 (STLK3), 10 μM"}, "[26]": {"target": "kinase named in conditions (Homo sapiens, UniProt Q8TD08)", "conditions": "MAPK15 (ERK7), 10 μM"}, "[27]": {"target": "kinase named in conditions (Homo sapiens, UniProt Q9HAZ1)", "sequence (Q9HAZ1 whole entry)": "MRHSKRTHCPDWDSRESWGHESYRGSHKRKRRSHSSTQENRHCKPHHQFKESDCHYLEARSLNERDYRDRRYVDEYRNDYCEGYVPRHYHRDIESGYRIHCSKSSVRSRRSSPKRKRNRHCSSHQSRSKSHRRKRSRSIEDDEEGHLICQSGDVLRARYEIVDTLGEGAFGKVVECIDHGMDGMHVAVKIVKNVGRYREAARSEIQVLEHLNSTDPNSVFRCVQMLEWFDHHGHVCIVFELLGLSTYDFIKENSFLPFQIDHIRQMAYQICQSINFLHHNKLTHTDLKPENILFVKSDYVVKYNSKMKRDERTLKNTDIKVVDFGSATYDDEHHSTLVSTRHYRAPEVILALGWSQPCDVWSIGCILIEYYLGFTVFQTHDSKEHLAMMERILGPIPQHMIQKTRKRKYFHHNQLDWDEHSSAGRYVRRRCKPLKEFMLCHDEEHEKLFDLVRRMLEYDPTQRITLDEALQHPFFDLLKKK", "conditions": "CLK4, 10 μM"}, "[28]": {"target": "kinase named in conditions (Homo sapiens, UniProt Q9Y2H1)", "sequence (Q9Y2H1 whole entry)": "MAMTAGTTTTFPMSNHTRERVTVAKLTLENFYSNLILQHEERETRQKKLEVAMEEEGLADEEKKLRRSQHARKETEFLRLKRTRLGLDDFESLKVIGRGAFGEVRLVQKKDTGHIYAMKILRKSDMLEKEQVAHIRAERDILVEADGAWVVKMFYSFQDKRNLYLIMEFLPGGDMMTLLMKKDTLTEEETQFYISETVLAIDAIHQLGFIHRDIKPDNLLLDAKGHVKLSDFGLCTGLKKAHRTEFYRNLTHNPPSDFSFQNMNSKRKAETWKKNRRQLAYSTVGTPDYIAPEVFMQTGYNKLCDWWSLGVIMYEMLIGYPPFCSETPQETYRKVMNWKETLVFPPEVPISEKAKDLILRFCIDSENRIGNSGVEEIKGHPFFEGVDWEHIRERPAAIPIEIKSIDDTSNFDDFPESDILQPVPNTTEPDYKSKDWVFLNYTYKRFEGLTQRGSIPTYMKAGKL", "conditions": "STK38L (NDR2), 10 μM"}, "[29]": {"target": "kinase named in conditions (Homo sapiens, UniProt P53671)", "conditions": "LIMK2, 10 μM"}, "[30]": {"target": "kinase named in conditions (Homo sapiens, UniProt Q99558)", "conditions": "MAP3K14 (NIK), 10 μM"}, "[31]": {"target": "kinase named in conditions (Homo sapiens, UniProt P10721, N822K)", "conditions": "KIT N822K, 10 μM"}, "[32]": {"target": "kinase named in conditions (Homo sapiens, UniProt P10721, T670I/V559D)", "conditions": "KIT V559D T670I, 10 μM"}, "[33]": {"target": "kinase named in conditions (Homo sapiens, UniProt Q9H4A3)", "conditions": "WNK1, 10 μM"}},
  "data": [
    {"compound": "FC(F)(F)c1c(Cl)ccc(-n2ccnn2)c1Cl", "note": "[8l, 1-(2,4-Dichloro-3-(trifluoromethyl)phenyl)-1H-1,2,3-triazole]", "values": [
      {"measurement": "inhibition at 10 µM", "setting": "[1]", "value": -1, "unit": "%"},
      {"measurement": "inhibition at 10 µM", "setting": "[2]", "value": 2, "unit": "%"},
      {"measurement": "inhibition at 10 µM", "setting": "[3]", "value": -6, "unit": "%"},
      {"measurement": "inhibition at 10 µM", "setting": "[4]", "value": 4, "unit": "%"},
      {"measurement": "inhibition at 10 µM", "setting": "[5]", "value": 4, "unit": "%"},
      {"measurement": "inhibition at 10 µM", "setting": "[6]", "value": 6, "unit": "%"},
      {"measurement": "inhibition at 10 µM", "setting": "[7]", "value": 0, "unit": "%"},
      {"measurement": "inhibition at 10 µM", "setting": "[8]", "value": 5, "unit": "%"},
      {"measurement": "inhibition at 10 µM", "setting": "[9]", "value": -13, "unit": "%"},
      {"measurement": "% Inhibition mean", "setting": "[10]; ALK T1151_L1152insT, 10 μM", "value": 3, "unit": "%"},
      {"measurement": "% Inhibition mean", "setting": "[10]; EGFR (ErbB1) d746-750, 10 μM", "value": 2, "unit": "%"},
      {"measurement": "% Inhibition mean", "setting": "[10]; EGFR (ErbB1) d747-749 A750P, 10 μM", "value": -6, "unit": "%"},
      {"measurement": "% Inhibition mean", "setting": "[10]; FLT3 ITD, 10 μM", "value": -15, "unit": "%"},
      {"measurement": "inhibition at 10 µM", "setting": "[11]; AMPK (A1/B1/G2)", "value": -13, "unit": "%"},
      {"measurement": "inhibition at 10 µM", "setting": "[11]; AMPK (A1/B1/G3)", "value": -4, "unit": "%"},
      {"measurement": "inhibition at 10 µM", "setting": "[11]; AMPK (A1/B2/G1)", "value": 6, "unit": "%"},
      {"measurement": "inhibition at 10 µM", "setting": "[12]", "value": 18, "unit": "%"},
      {"measurement": "inhibition at 10 µM", "setting": "[13]", "value": 8, "unit": "%"},
      {"measurement": "inhibition at 10 µM", "setting": "[14]", "value": 6, "unit": "%"},
      {"measurement": "inhibition at 10 µM", "setting": "[15]", "value": -6, "unit": "%"},
      {"measurement": "inhibition at 10 µM", "setting": "[16]", "value": 3, "unit": "%"},
      {"measurement": "inhibition at 10 µM", "setting": "[17]", "value": -9, "unit": "%"},
      {"measurement": "inhibition at 10 µM", "setting": "[18]", "value": -3, "unit": "%"},
      {"measurement": "inhibition at 10 µM", "setting": "[19]", "value": 12, "unit": "%"},
      {"measurement": "inhibition at 10 µM", "setting": "[20]", "value": 12, "unit": "%"},
      {"measurement": "inhibition at 10 µM", "setting": "[21]", "value": 17, "unit": "%"},
      {"measurement": "inhibition at 10 µM", "setting": "[22]", "value": 14, "unit": "%"},
      {"measurement": "inhibition at 10 µM", "setting": "[23]", "value": 2, "unit": "%"},
      {"measurement": "inhibition at 10 µM", "setting": "[24]", "value": -3, "unit": "%"},
      {"measurement": "inhibition at 10 µM", "setting": "[25]", "value": 13, "unit": "%"},
      {"measurement": "inhibition at 10 µM", "setting": "[26]", "value": 1, "unit": "%"},
      {"measurement": "inhibition at 10 µM", "setting": "[27]", "value": 3, "unit": "%"},
      {"measurement": "inhibition at 10 µM", "setting": "[28]", "value": 15, "unit": "%"},
      {"measurement": "inhibition at 10 µM", "setting": "[29]", "value": -3, "unit": "%"},
      {"measurement": "inhibition at 10 µM", "setting": "[30]", "value": 16, "unit": "%"},
      {"measurement": "inhibition at 10 µM", "setting": "[31]", "value": -3, "unit": "%"},
      {"measurement": "inhibition at 10 µM", "setting": "[32]", "value": -3, "unit": "%"},
      {"measurement": "inhibition at 10 µM", "setting": "[33]", "value": 2, "unit": "%"}
    ]}
  ]
}
